# Experimental data published in US20110003688A1, “Pesticidal Compound Mixtures” (Bayer CropScience AG, priority 2007, published 2011).
# Legend:
# Format in all cases: in vivo
# Conditions in all cases: mortality
# [1] = tested on: larvae of the fall army worm (Spodoptera frugiperda); assay: Spodoptera frugiperda test (sprayed cabbage leaves infested with larvae)
# Description: (§1) To produce a suitable preparation of active compound, 1 part by weight of active compound is mixed with the stated amount of solvent and emulsifier, and the concentrate is diluted with emulsifier-containing water to the desired concentration.
# Cabbage leaves (Brassica oleracea) are treated by being sprayed with the preparation of the active compound at the desired concentration and are infested with larvae of the fall army worm (Spodoptera frugiperda) as long as the leaves are still moist.
# (§2) After the specified period of time, the mortality in % is determined. 100% means that all the caterpillars have been killed; 0% means that none of the caterpillars have been killed.
# [2] = tested on: larvae of the beet army worm (Spodoptera exigua); assay: Spodoptera exigua test (sprayed cabbage leaves infested with larvae)
# Description: as §1
# Cabbage leaves (Brassica oleracea) are treated by being sprayed with the preparation of the active compound at the desired concentration and are infested with larvae of the beet army worm (Spodoptera exigua) as long as the leaves are still moist.
# as §2
# [3] = tested on: cotton aphid (Aphis gossypii); assay: Aphis gossypii test (sprayed infested cotton leaves)
# Description: as §1
# Cotton leaves (Gossypium hirsutum) which are heavily infested by the cotton aphid (Aphis gossypii) are treated by being sprayed with the preparation of the active compound at the desired concentration.
# (§3) After the specified period of time, the mortality in % is determined. 100% means that all the aphids have been killed; 0% means that none of the aphids have been killed.
# [4] = tested on: green peach aphid (Myzus persicae); assay: Myzus persicae test (sprayed infested cabbage leaves)
# Description: as §1
# Cabbage leaves (Brassica oleracea) which are heavily infested by the green peach aphid (Myzus persicae) are treated by being sprayed with the preparation of the active compound at the desired concentration.
# as §3
structure (smiles),measurement,setting,value
"CC[S+]([O-])c1c(C#N)nn(-c2c(Cl)cc(C(F)(F)F)cc2Cl)c1N (centres unmarked) [Ethiprole, ethiprole]",Efficacy in % after 4 days,[1]; 4 ppm,40%
same,Efficacy in % after 4 days,[2]; 0.8 ppm,0%
same,Efficacy in % after 1 day,[3]; 4 ppm,30%
same,Efficacy in % after 1 day,[4]; 4 ppm,0%
same,Efficacy in % after 6 days,[4]; 4 ppm,0%
"CC1(C)C(C=C(Cl)Cl)C1C(=O)OC(C#N)c1ccc(F)c(Oc2ccccc2)c1 (centres unmarked) [Cyfluthrin, cyfluthrin]",Efficacy in % after 1 day,[3]; 0.8 ppm,25%
"CC1(C)C(C=C(Cl)Cl)C1C(=O)OC(C#N)c1ccc(F)c(Oc2ccccc2)c1 (stereo not drawn) [β-Cyfluthrin, beta-cyfluthrin]",Efficacy in % after 6 days,[4]; 0.8 ppm,75%
"CC1(C)[C@H](C(=O)O[C@H](C#N)c2cccc(Oc3ccccc3)c2)[C@@H]1C=C(Br)Br [Deltamethrin, deltamethrin]",Efficacy in % after 4 days,[1]; 0.8 ppm,70%
same,Efficacy in % after 4 days,[2]; 0.16 ppm,0%
same,Efficacy in % after 1 day,[4]; 0.8 ppm,50%
"CC1(C)[C@H](C(=O)O[C@H](C#N)c2cccc(Oc3ccccc3)c2)[C@@H]1/C=C(\Cl)C(F)(F)F [L-Cyhalothrin, lambda-cyhalothrin]",Efficacy in % after 6 days,[4]; 0.8 ppm,45%
